Data taken from patent publication EP4644392A1, “PYRIDAZINE FUSED ARYL RING COMPOUND AND USE THEREOF” (Chia Tai Tianqing Pharmaceutical Group Co., Ltd., priority 2022, dated 2024).
Like-named read-outs stand apart in the source and are kept apart here.

Assays:
[1] = system: J774A.1 cells; experiment: Anti-pyroptosis activity assay in J774A.1 cells (CCK-8 readout, nigericin stimulation); type: cell-based; settings: Mus musculus, J774.A1, nigericin 10 µM
[2] = In-vitro stability in liver microsomes; settings: human liver microsomes 0.5 mg/mL, NADPH, 37 °C, 1 h
[3] = system: IL-1β expression in THP-1 cells; experiment: In-vitro THP-1 cell (IL-1β) expression assay (LPS + nigericin, ELISA); type: cell-based; settings: Homo sapiens; for inhibition at 0.001 µM: THP-1, read-out: 1 nM (% inhibition); for inhibition at 0.01 µM: THP-1, read-out: 10 nM (% inhibition); for inhibition at 0.1 µM: THP-1, read-out: 100 nM (% inhibition)
Protocol: THP-1 cells in good growth status were collected into a centrifuge tube, and the cell density was adjusted to 2 × 10^6 cells/mL. The cells were then seeded into a 96-well plate (50 µL/well), and meanwhile, LPS (manufacturer: Sigma; 50 µL/well) was added at a final concentration of 100 ng/mL. The plate was then incubated at 37 °C with 5% CO2 for 3 h. […] The plate was incubated at 37 °C with 5% CO2 for 1 h. Nigericin (manufacturer: Millipore; 50 µL/well) was added at a final concentration of 10 µM, and the plate was incubated at 37 °C with 5% CO2 for 1 h and then centrifuged at 1500 rpm for 3 min. The supernatant was collected and stored at -20 °C for subsequent detection of human IL-1β.
Human IL-1β detection (manufacturer: R&D): Human IL-1β Capture Antibody (coating antibody) was added to a high-binding 96-well plate at a final concentration of 4 µg/mL (100 µL/well), and the plate was incubated at 4 °C overnight. The supernatant was discarded, and the plate was washed with PBST (300 µL/well, 3 times in total). A 1% BSA-PBS blocking buffer was added (200 µL/well), and the plate was blocked at 25 °C for 2 h. The supernatant was discarded, and the plate was washed with PBST (300 µL/well, 3 times in total). A standard curve sample and the diluted samples to be tested were then added (100 µL/well), and the plate was incubated at 25 °C for 2 h. The supernatant was discarded, and the plate was washed with PBST (300 µL/well, 3 times total). Human IL-1β Detection Antibody (detection secondary antibody) was added at a final concentration of 200 ng/mL (100 µL/well), and the plate was incubated at 25 °C for 2 h. The supernatant was discarded, and the plate was washed with PBST (300 µL/well, 3 times in total). Streptavidin-HRP (detection tertiary antibody) was then added (100 µL/well), and the plate was incubated at 25 °C for 20 min. The supernatant was discarded, and the plate was washed with PBST (300 µL/well, 3 times in total). TMB was added for color development (100 µL/well), and the plate was incubated at 25 °C for 5 min. Finally, 1 M H2SO4 was added to terminate the reaction (50 µL/well). Absorbance values were measured at 450/570 nm using a PerkinElmer Envision microplate reader. Data were analyzed using a four-parameter model to calculate the IL-1β expression amount and inhibition rate. […]

[4] = microsomes, 1 h

| Compound | Human Remaining amount at 60 min (%) [2] | Human Remaining amount at 60 min (%) [4] | EC50 [1] | inhibition at 0.001 µM [3] | inhibition at 0.01 µM [3] | inhibition at 0.1 µM [3] |
| --- | --- | --- | --- | --- | --- | --- |
| CN1CCC[C@@H](Nc2nnc(-c3ccc(C(F)(F)F)cc3O)n3c2cc2sccc23)C1 [Example 3] | – | – | 100 to 1000 nM | 10 to 50% | 10 to 50% | ≥ 50% |
| CN1CCC[C@@H](Nc2nnc(-c3ccc(C(F)(F)F)cc3O)c3cc4c(n23)CCC4)C1 [Example 6] | – | – | 100 to 1000 nM | 10 to 50% | 10 to 50% | ≥ 50% |
| Oc1cc(C(F)(F)F)ccc1-c1nnc(N[C@@H]2COC[C@H]2O)c2c3c(cn12)CCC3 [Example 16] | – | – | 100 to 1000 nM | – | – | – |
| CS(=O)(=O)N1CCC[C@@H](Nc2nnc(-c3ccc(C(F)(F)F)cc3O)n3cccc23)C1 [Example 22] | – | – | 100 to 1000 nM | – | – | – |
| CN1CCC[C@@H](Nc2nnc(-c3ccc(C(F)(F)F)cc3O)c3c4c(cn23)CCC4)C1 [Example 4] | – | – | 100 to 1000 nM | 10 to 50% | 10 to 50% | ≥ 50% |
| CN1CCC[C@@H](Nc2nnc(-c3ccc(Cl)cc3O)n3cccc23)C1 [Example 13] | – | – | < 100 nM | – | – | – |
| CN1CCC[C@@H](Nc2nnc(-c3ccc(C(F)(F)F)cc3O)n3cccc23)C1 [Example 1] | 95.57% | – | < 100 nM | ≥ 50% | ≥ 50% | – |
| CN1CCC[C@@H](Nc2nnc(-c3ccc(C(F)(F)F)cc3O)n3c4c(cc23)CCC4)C1 [Example 7] | 90.01% | – | – | – | – | – |
| C[C@]1(O)C[C@@H](Nc2nnc(-c3ccc(C(F)(F)F)cc3O)n3cccc23)C1 [Example 15] | – | – | 100 to 1000 nM | – | – | – |
| Oc1cc(Cl)ccc1-c1nnc(N[C@@H]2COC[C@H]2O)c2c3c(cn12)CCC3 [Example 18] | – | – | 100 to 1000 nM | – | – | – |
| CN1CCC[C@@H](Nc2nnc(-c3ccc(C(F)(F)F)cc3O)n3cc4c(c23)CCC4)C1 [Example 5] | 72.41% | – | < 100 nM | 10 to 50% | ≥ 50% | ≥ 50% |
| Oc1cc(C(F)(F)F)ccc1-c1nnc(N[C@@H]2COC[C@@H]2O)c2c3c(cn12)CCC3 [Example 17] | – | – | 100 to 1000 nM | – | – | – |
| O=S(=O)(C1CC1)N1CCC[C@@H](Nc2nnc(-c3ccc(C(F)(F)F)cc3O)n3cccc23)C1 [Example 24] | – | – | 100 to 1000 nM | – | – | – |
| CN1CCC[C@@H](Nc2nnc(-c3ccc(C(F)(F)F)cc3O)c3cc4sccc4n23)C1 [Example 2] | – | 80.23% | < 100 nM | 10 to 50% | 10 to 50% | ≥ 50% |
| OCCN1CCC[C@@H](Nc2nnc(-c3ccc(C(F)(F)F)cc3O)n3cc4c(c23)CCC4)C1 [Example 8] | 79.13% | – | – | – | – | – |
| Oc1cc(C(F)(F)F)ccc1-c1nnc(N[C@@H]2CCCC[C@H]2O)c2c3c(cn12)CCC3 [Example 21] | – | – | < 100 nM | – | – | – |

Now from value to compound, other results behind:

| Human Remaining amount at 60 min (%) [2] | Human Remaining amount at 60 min (%) [4] | Compound | EC50 [1] | inhibition at 0.001 µM [3] | inhibition at 0.01 µM [3] | inhibition at 0.1 µM [3] |
| --- | --- | --- | --- | --- | --- | --- |
| 98.06% | – | CS(=N)(=O)N1CCC[C@@H](Nc2nnc(-c3ccc(C(F)(F)F)cc3O)n3cccc23)C1 (stereo partly shown) [Example 25] | 100 to 1000 nM | – | – | – |
| 75.56% | – | C#Cc1ccc(-c2nnc(N[C@@H]3CCCN(C)C3)c3c4c(cn23)CCC4)c(O)c1 [Example 11] | – | – | – | – |
| 99.00% | – | CC#Cc1ccc(-c2nnc(N[C@@H]3CCCN(C)C3)c3cccn23)c(O)c1 [Example 10] | – | – | – | – |
| 93.93% | – | NS(=O)(=O)N1CCC[C@@H](Nc2nnc(-c3ccc(C(F)(F)F)cc3O)n3cccc23)C1 [Example 23] | < 100 nM | – | – | – |
| 93.13% | – | OCCN1CCC[C@@H](Nc2nnc(-c3ccc(C(F)(F)F)cc3O)c3c4c(cn23)CCC4)C1 [Example 14] | – | – | – | – |
| 100.53% | – | C=Cc1ccc(-c2nnc(N[C@@H]3CCCN(C)C3)c3cccn23)c(O)c1 [Example 12] | – | ≥ 50% | ≥ 50% | ≥ 50% |
| 98.65% | – | C#Cc1ccc(-c2nnc(N[C@@H]3CCCN(C)C3)c3cccn23)c(O)c1 [Example 9] | < 100 nM | ≥ 50% | ≥ 50% | ≥ 50% |
